# From ChEMBL document CHEMBL5154907, “Discovery and Anti-Inflammatory Activity Evaluation of a Novel CDK8 Inhibitor through Upregulation of IL-10 for the Treatment of Inflammatory Bowel Disease In Vivo” (J Med Chem, 2022)
# Legend:
# BMDC = test: Anti-inflammatory activity against R848-stimulated mouse BMDC cells assessed as upregulation of IL-10 production at 5 uM treated for 24 hrs followed by R848 stimulation for 12 hrs by ELISA method (reference value: 100 %); format: functional; settings: time 36 hrs
# [1] = molecular target: CDK8/Cyclin C (Homo sapiens) (UniProt P49336+P24863); test: Inhibition of recombinant full length His tagged human CDK8/Cyclin C expressed in Baculovirus at 200 nM incubated for 60 mins in presence of ATP by ADP-Glo kinase assay
# CDK8/Cyclin C = CDK8/Cyclin C (Homo sapiens, UniProt P49336); test: Inhibition of recombinant full length His tagged human CDK8/Cyclin C expressed in Baculovirus incubated for 60 mins in presence of ATP by ADP-Glo kinase assay
# [2] = Transcriptional activity of AP-1 in R848-stimulated mouse BMDC cells transfected with pAP1-luc assessed as ratio of AP-1 activity at 5 uM treated for 24 hrs followed by R848 stimulation for 4 hrs by luminescence based microplate reader analysis relative to control; format: functional; settings: time 28 hrs
# Sequence of CDK8/Cyclin C (P49336 whole entry): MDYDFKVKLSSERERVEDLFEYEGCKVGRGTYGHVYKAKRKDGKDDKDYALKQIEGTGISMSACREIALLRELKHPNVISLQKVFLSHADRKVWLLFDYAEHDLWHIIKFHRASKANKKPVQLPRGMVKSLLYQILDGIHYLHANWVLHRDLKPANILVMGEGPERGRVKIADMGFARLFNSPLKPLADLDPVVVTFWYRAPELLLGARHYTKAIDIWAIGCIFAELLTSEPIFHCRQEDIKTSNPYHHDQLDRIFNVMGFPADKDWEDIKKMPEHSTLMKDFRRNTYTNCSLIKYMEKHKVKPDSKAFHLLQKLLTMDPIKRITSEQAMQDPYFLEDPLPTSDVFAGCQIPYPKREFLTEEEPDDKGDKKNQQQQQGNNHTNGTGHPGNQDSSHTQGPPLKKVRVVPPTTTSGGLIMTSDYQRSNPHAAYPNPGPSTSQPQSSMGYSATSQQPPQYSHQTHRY
# Sequence of CDK8/Cyclin C (P24863 whole entry, further chain): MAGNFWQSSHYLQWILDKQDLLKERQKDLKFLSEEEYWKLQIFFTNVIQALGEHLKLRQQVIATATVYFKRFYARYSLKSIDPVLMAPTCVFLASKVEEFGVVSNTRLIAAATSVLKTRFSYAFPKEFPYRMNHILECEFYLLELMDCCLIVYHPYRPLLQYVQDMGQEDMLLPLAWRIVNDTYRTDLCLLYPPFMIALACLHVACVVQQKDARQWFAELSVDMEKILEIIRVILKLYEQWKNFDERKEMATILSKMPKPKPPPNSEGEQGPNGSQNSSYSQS
inhibition [1],IC50 (CDK8/Cyclin C),SMILES,Activity (BMDC),Ratio [2]
47%,–,CC(=O)Nc1ccccc1NC(=O)c1cncc(-c2ccc(C(=O)N3CCNCC3)cc2)c1,29%,–
61%,–,O=C(NCc1ccoc1)c1cncc(-c2ccc(C(=O)N3CCNCC3)cc2)c1,60%,–
19%,–,O=C(Nc1ccccc1F)c1cc(O)cc(-c2ccc(C(=O)N3CCNCC3)cc2)c1,42%,–
29%,–,CC(C)c1cccc(NC(=O)c2cc(O)cc(-c3ccc(C(=O)N4CCNCC4)cc3)c2)c1,62%,–
47%,–,O=C(Nc1cccc(Cl)c1)c1cncc(-c2ccc(C(=O)N3CCNCC3)cc2)c1,39%,–
21%,–,Cc1ccc(NC(=O)c2cc(O)cc(-c3ccc(C(=O)N4CCNCC4)cc3)c2)cc1,34%,–
62%,177 nM,CN(C)c1ccc(-c2cc(O)c3c(=O)cc(-c4ccccc4)oc3c2)cc1,–,1.4
12%,–,O=C(Nc1ccc(F)cc1)c1cc(O)cc(-c2ccc(C(=O)N3CCNCC3)cc2)c1,42%,–
67%,162 nM,O=C(Nc1ccccc1)c1cccc(-c2ccc(C(=O)N3CCNCC3)cc2)c1,–,1.7
53%,–,CC(C)c1ccccc1NC(=O)c1cc(O)cc(-c2ccc(C(=O)N3CCNCC3)cc2)c1,23%,–
6%,–,O=C(c1ccc(-c2cc(O)c3c(=O)cc(-c4ccccc4)oc3c2)cc1)N1CCOCC1,25%,–
29%,–,CCCN1CCN(C(=O)c2ccc(-c3cc(O)c4c(=O)cc(-c5ccccc5)oc4c3)cc2)CC1,53%,–
35%,–,CC(C)(C)c1ccc(NC(=O)c2cc(O)cc(-c3ccc(C(=O)N4CCNCC4)cc3)c2)cc1,72%,–
62%,–,O=C(NCc1ccccc1)c1cncc(-c2ccc(C(=O)N3CCNCC3)cc2)c1,72%,–
15%,–,O=C(Nc1cccc(C(F)(F)F)c1)c1cc(O)cc(-c2ccc(C(=O)N3CCNCC3)cc2)c1,19%,–
23%,–,O=C(Nc1ccc(C(F)(F)F)cc1)c1cncc(-c2ccc(C(=O)N3CCNCC3)cc2)c1,19%,–
45%,–,CC(=O)Nc1ccc(NC(=O)c2cc(O)cc(-c3ccc(C(=O)N4CCNCC4)cc3)c2)cc1,30%,–
59%,–,Nc1cccc(NC(=O)c2cncc(-c3ccc(C(=O)N4CCNCC4)cc3)c2)c1,60%,–
47%,–,CN(C)Cc1ccc(-c2cc(O)c3c(=O)cc(-c4ccccc4)oc3c2)cc1,82%,–

inhibition [1],IC50 (CDK8/Cyclin C),SMILES,Activity (BMDC),Ratio [2]
53%,–,O=C(NC1CCCCC1)c1cncc(-c2ccc(C(=O)N3CCNCC3)cc2)c1,59%,–
5%,–,O=C(Nc1ccc(OC(F)(F)F)cc1)c1cc(O)cc(-c2ccc(C(=O)N3CCNCC3)cc2)c1,88%,–
55%,–,O=C(Nc1ccc(OC(F)(F)F)cc1)c1cncc(-c2ccc(C(=O)N3CCNCC3)cc2)c1,62%,–
44%,–,O=C(Nc1cccc(OC(F)(F)F)c1)c1cncc(-c2ccc(C(=O)N3CCNCC3)cc2)c1,48%,–
48%,–,O=c1cc(-c2ccccc2)oc2cc(-c3ccc(OC(F)(F)F)cc3)cc(O)c12,44%,–
57%,–,CCN1CCN(C(=O)c2ccc(-c3cc(O)c4c(=O)cc(-c5ccccc5)oc4c3)cc2)CC1,23%,–
58%,–,CC(C)c1ccccc1NC(=O)c1cncc(-c2ccc(C(=O)N3CCNCC3)cc2)c1,78%,–
24%,–,O=c1cc(-c2ccccc2)oc2cc(-c3ccncc3)cc(O)c12,73%,1.2
65%,134 nM,CC(=O)Nc1cccc(NC(=O)c2cncc(-c3ccc(C(=O)N4CCNCC4)cc3)c2)c1,78%,–
56%,205 nM,COc1cc(OC)c(-c2cc(O)c3c(=O)cc(-c4ccccc4)oc3c2)c(OC)c1,–,–
28%,2110 nM,O=c1cc(-c2ccccc2)oc2cc(-c3ccc(C(F)(F)F)cc3)cc(O)c12,–,1.4
55%,–,O=C(Nc1ccccc1F)c1cncc(-c2ccc(C(=O)N3CCNCC3)cc2)c1,62%,–
36%,–,COc1cccc(NC(=O)c2cc(O)cc(-c3ccc(C(=O)N4CCNCC4)cc3)c2)c1,17%,–
54%,–,CC(=O)Nc1ccc(-c2cc(O)c3c(=O)cc(-c4ccccc4)oc3c2)cc1,49%,–
31%,–,CCc1ccc(-c2cc(O)c3c(=O)cc(-c4ccccc4)oc3c2)cc1,–,–
19%,–,O=c1cc(-c2ccccc2)oc2cc(-c3ccc(N4CCOCC4)cc3)cc(O)c12,23%,–
12%,–,Cc1noc(C)c1-c1cc(O)c2c(=O)cc(-c3ccccc3)oc2c1,30%,–
29%,–,CCN1CCN(c2ccc(-c3cc(O)c4c(=O)cc(-c5ccccc5)oc4c3)cc2)CC1,40%,–
42%,–,CN1CCN(c2ccc(-c3cc(O)c4c(=O)cc(-c5ccccc5)oc4c3)cc2)CC1,53%,1.4

# More lines, now with the values behind:
SMILES,inhibition [1],IC50 (CDK8/Cyclin C),Activity (BMDC),Ratio [2]
CCc1ccc(NC(=O)c2cc(O)cc(-c3ccc(C(=O)N4CCNCC4)cc3)c2)cc1,48%,–,72%,–
Cc1ccc(-c2cc(O)c3c(=O)cc(-c4ccccc4)oc3c2)cc1,62%,155 nM,83%,2.6
Cc1cc(C)c(NC(=O)c2cc(O)cc(-c3ccc(C(=O)N4CCNCC4)cc3)c2)c(C)c1,38%,–,59%,–
O=C(NCCc1ccccc1)c1cncc(-c2ccc(C(=O)N3CCNCC3)cc2)c1,52%,–,62%,–
CN1CCN(C(=O)c2ccc(-c3cc(O)c4c(=O)cc(-c5ccccc5)oc4c3)cc2)CC1,–,–,19%,–
CC(C)c1ccc(NC(=O)c2cc(O)cc(-c3ccc(C(=O)N4CCNCC4)cc3)c2)cc1,28%,–,53%,–
O=C(Nc1cccc(F)c1)c1cc(O)cc(-c2ccc(C(=O)N3CCNCC3)cc2)c1,20%,–,26%,–
CC(C)c1ccc(NC(=O)c2cncc(-c3ccc(C(=O)N4CCNCC4)cc3)c2)cc1,62%,–,61%,–
Cc1cccc(NC(=O)c2cc(O)cc(-c3ccc(C(=O)N4CCNCC4)cc3)c2)c1,20%,–,76%,–
Nc1cccc(NC(=O)c2cc(O)cc(-c3ccc(C(=O)N4CCNCC4)cc3)c2)c1,39%,–,53%,–
O=C(Nc1ccc(C(F)(F)F)cc1)c1cc(O)cc(-c2ccc(C(=O)N3CCNCC3)cc2)c1,40%,–,8%,–
O=c1cc(-c2ccccc2)oc2cc(-c3ccc(CN4CCOCC4)cc3)cc(O)c12,43%,–,53%,–
COc1cc(-c2cc(O)c3c(=O)cc(-c4ccccc4)oc3c2)cc(OC)c1OC,27%,–,78%,–
O=C(Nc1ccc(F)cc1)c1cncc(-c2ccc(C(=O)N3CCNCC3)cc2)c1,60%,–,75%,–
O=c1cc(-c2ccccc2)oc2cc(-c3cncnc3)cc(O)c12,35%,548 nM,–,–
COc1ccccc1NC(=O)c1cncc(-c2ccc(C(=O)N3CCNCC3)cc2)c1,60%,–,62%,–
CC1CCc2nc(N)c(C#N)c(-c3cccnc3)c2C1 (stereo not given),–,211 nM,66%,2.5

SMILES,inhibition [1],IC50 (CDK8/Cyclin C),Activity (BMDC),Ratio [2]
CC(C)(C)c1ccc(NC(=O)c2cncc(-c3ccc(C(=O)N4CCNCC4)cc3)c2)cc1,54%,–,63%,–
CN(C)C(=O)c1ccc(-c2cc(O)c3c(=O)cc(-c4ccccc4)oc3c2)cc1,43%,–,76%,–
O=c1cc(-c2ccccc2)oc2cc(-c3ccsc3)cc(O)c12,6%,–,–,–
COc1ccc(-c2cc(O)c3c(=O)cc(-c4ccccc4)oc3c2)cc1,47%,–,76%,–
CC(C)c1cccc(NC(=O)c2cncc(-c3ccc(C(=O)N4CCNCC4)cc3)c2)c1,64%,–,–,–
O=C(c1ccc(-c2cc(O)c3c(=O)cc(-c4ccccc4)oc3c2)cc1)N1CCSCC1,19%,–,46%,–
O=c1cc(-c2ccccc2)oc2cc(-c3ccc(Cl)cc3)cc(O)c12,31%,–,–,–
COc1ccc(NC(=O)c2cc(O)cc(-c3ccc(C(=O)N4CCNCC4)cc3)c2)cc1,61%,–,56%,–
Nc1ccc(NC(=O)c2cc(O)cc(-c3ccc(C(=O)N4CCNCC4)cc3)c2)cc1,31%,–,20%,–
CN1CCN(Cc2ccc(-c3cc(O)c4c(=O)cc(-c5ccccc5)oc4c3)cc2)CC1,25%,–,36%,1.1
CC(=O)Nc1cccc(NC(=O)c2cc(O)cc(-c3ccc(C(=O)N4CCNCC4)cc3)c2)c1,–,–,12%,–
O=C(Nc1cccc(F)c1)c1cncc(-c2ccc(C(=O)N3CCNCC3)cc2)c1,42%,–,53%,–
Cc1ccc(NC(=O)c2cncc(-c3ccc(C(=O)N4CCNCC4)cc3)c2)cc1,77%,–,62%,–
Cn1cc(-c2cc(O)c3c(=O)cc(-c4ccccc4)oc3c2)cn1,11%,–,57%,–
O=c1cc(-c2ccccc2)oc2cc(-c3ccoc3)cc(O)c12,29%,–,48%,–
O=C(Nc1cccc(OC(F)(F)F)c1)c1cc(O)cc(-c2ccc(C(=O)N3CCNCC3)cc2)c1,–,–,10%,–
